Paper PMC12040169 (PLOS Biology, 2025)

Assay: in vitro
Settings: human, hela cells, % viability

SMILES	viability at 28.5 h, 10 µM [%]
O=C1NC2(CC3CCC2CC3C(=O)NC2CC2)Oc2ccccc21 (stereo not shown) [CBK284352]	99.6
Nc1ccc(-c2cnc(NCc3ccc4c(c3)OCO4)c(C(=O)Nc3ccc4c(c3)OCCO4)c2)cc1 [CBK138480T]	106
O=C(CCn1cnc2cc(-c3noc(-c4cnccn4)n3)ccc21)N1CCCC1 [CBK288595]	104
O=C(c1ccncc1)N1Cc2ccccc2C1 [CBK200316]	103
CC[C@H]1C[N@@]2CC[C@H]1C[C@@H]2CNS(=O)(=O)c1cccc(C#N)c1 [CBK288746]	96.9
CC(C)(C)c1cc(C(=O)CSc2nnc(Nc3ccccc3)n2-c2ccccc2)cc(C(C)(C)C)c1O [CBK261033]	94.1
COC(=O)c1ccc(S(=O)(=O)C(F)(F)F)cc1N [CBK018172]	114
COCCn1c(CO)nnc1[C@H]1C[C@@H](NC(=O)c2cc(O)ccc2F)C1 [CBK307698]	90.4
O=C(c1ccncc1)N1CCCn2nc(-c3cccnc3)cc2C1 [CBK288607]	88.7
Cc1cc(C(=O)CSc2nnnn2-c2ccc(O)cc2)c(C)n1Cc1ccc(F)cc1 [CBK297081]	98.8
COc1ccc(C(=O)N2CCC3(CCN(C(=O)CCSC)C3)C2)cc1OC (stereo not shown) [CBK131786]	105
CCc1nc2cc(NC(=O)Cn3cc(C)cn3)ccc2n1CC [CBK281608]	84.9
COC(=O)CCc1ccc(-c2cnc(N)c(-c3ccc(O)cc3)n2)cc1 [CBK122809]	88.9
Cn1cncc1CN(Cc1ccccc1)C1CC(C)(C)NC(C)(C)C1 [CBK283226]	89.1
O=C(c1csnn1)N1Cc2ccccc2C1 [CBK200325]	111
O=C(c1cc(S(=O)(=O)N2CCOCC2)ccc1Cl)N1CCCCC1CO (stereo not shown) [CBK304579]	88.6
CCc1nc2ccc(C(=O)N(C)Cc3ccco3)cn2c1N(C)C(=O)c1ccncc1 [CBK145479]	90.9
CCN(Cc1ccc(C#N)cc1F)C(=O)Nc1cnn(CCOC)c1 [CBK305697]	91.9
O=C(O)C1CCCCC1C(=O)NCCCCc1ccccc1 (stereo not shown) [CBK287205]	83.2
O=C(c1cc2c([nH]1)CCCC2)N1CCC(CCN2CCOCC2)CC1 [CBK281869]	88.9
Cc1cc(O)cc(O)c1/C=N\NC(=O)C1COc2cc3ccccc3cc2O1 (stereo not shown) [CBK262809]	80.4
COc1ccc(C2=NN(c3ccccc3)C(c3cn(-c4ccccc4)nc3-c3ccccc3)C2)cc1 (stereo not shown) [CBK263230]	88.9

SMILES	viability at 28.5 h, 10 µM [%]
Cc1ccc(C(C)C(=O)N2CCC(C(=O)c3cccnc3)CC2)cc1 (stereo not shown) [CBK283516]	93.5
COc1ccc([C@]23CN(C)C[C@H]2CCN(C(=O)Nc2cccc(Cl)c2)C3)cc1OC [CBK075104T]	112
COc1ccc2c(c1)C(=O)NC1(CC2)CCN(Cc2ccccc2)C1 (stereo not shown) [CBK283343]	95.2
COc1ccc(-c2ccccc2NC(=O)c2cc(-n3cccn3)ccc2Cl)cc1 [CBK285634]	91.3
Clc1ccc(-c2c[nH]c([C@@H]3COCCN3Cc3c[nH]cn3)n2)cc1 [CBK289316]	105
Cc1nccn1C(=O)NC1CCCCC1 [CBK019187]	81.8
O=C1CC(c2cccs2)CC(=O)C1=CNCCN1CCNCC1 (stereo not shown) [CBK264785]	105
c1coc(-c2ccc(Nc3ccc4c(c3)OCCO4)nc2)c1 [CBK037765]	96.9
Cc1cc(=O)[nH]c(N/N=C/c2ccc(Cl)cc2Cl)n1 [CBK024387]	95.8
Oc1cc(C(F)(F)F)nc(NCc2cccc3ccccc23)n1 [CBK003716]	92.7
COc1nccnc1-c1ccc(Cl)c(Cl)c1 [CBK107110]	98.7
Cc1ccc(C2N(Cc3ccccc3)CCN2Cc2ccccc2)o1 [CBK260883]	98.3
O=C(c1cccnc1)N1C[C@@H]2OCC(=O)N(Cc3ccc(F)cc3)[C@@H]2C1 [CBK289691]	96.1
Cc1ccc(OC2(C(=O)N3CCCC3C(F)(F)F)CCNCC2)cc1 (stereo not shown) [CBK307226]	82.5
CCN1C(=O)CC2(C1=O)C(=O)N(CCc1cccs1)c1ccccc12 (stereo not shown) [CBK075521]	91.4
CCNC(=O)C1(Cc2ccc(-c3ccncc3)cc2)CCN(C(=O)CC2CCCCC2)CC1 [CBK285785]	89.8
O=C(O)c1cccc(CSc2nc3ccccc3o2)c1 [CBK270193]	91.7
O=C(c1ccccc1)C(Sc1nnc2sc3ccccc3n12)c1ccccc1 (stereo not shown) [CBK265416]	84.2
COc1ccc(-c2ccc(CCC(=O)O)n2CCc2ccccc2)cc1 [CBK265929]	115
CCCCOc1ccccc1NC(=O)CC1NCCNC1=O (stereo not shown) [CBK269299]	94.7
CC(C)(C)C(=O)N1CCC(n2nc(-c3cccs3)ccc2=O)CC1 [CBK284182]	92.9
COc1ccc(C(C)c2cc3c(cc2O)OCO3)c(F)c1 (stereo not shown) [CBK200101]	98.1

SMILES	viability at 28.5 h, 10 µM [%]
CCC(=O)N1C[C@@H](N(C)C)[C@H](c2cn(C)c3ccccc23)C1 [CBK285008]	91.3
Fc1ccc(CCNc2ccc3nncn3n2)cc1 [CBK287909]	88.2
Cc1nc(-c2ccccc2)sc1CNC(=O)/C=C\C(=O)Nc1ccc(F)cc1 [CBK092357]	96.2
CN(CC(=O)NNC(=O)c1cccs1)S(=O)(=O)c1ccc2ccccc2c1 [CBK267409]	90.8
Cc1cc(C(F)(F)F)nn1CCC(=O)Nc1cnn(C)c1C(=O)O [CBK286817]	98.4
Cc1ccccc1NC(=O)Cn1c(=O)n(CC(=O)Nc2ccccc2C)c2ccccc21 [CBK266938]	101
COc1ccc(C(=O)N/C(=C/c2ccc([N+](=O)[O-])cc2)c2nc3ccc(C(F)(F)F)cc3[nH]2)cc1OC [CBK263199]	104
FC(F)(F)c1cccnc1OCCOc1ccc(Cl)cc1 [CBK116621]	90.5
CCc1noc(C)c1C(=O)Nc1cc(S(=O)(=O)N2CCCCC2)ccc1N(C)C [CBK295328]	85.4
COC(=O)c1ccc(-c2ccc(F)cc2OC)nc1 [CBK149230]	88.3
Cc1oc2ccc(O)cc2c1C(=O)N(C)C(C)Cc1ccccn1 (stereo not shown) [CBK282627]	96.2
N#C/C(=C/c1ccccc1OCc1cccc([N+](=O)[O-])c1)c1ccc(C(=O)O)cc1 [CBK268748]	96.2
CN(C)CCN(C)c1cc(-c2cccc(C(=O)O)c2)nc2ccnn12 [CBK037206]	101
CC(=O)OC1CCn2c1nc1ccccc12 (stereo not shown) [CBK113621]	92.6
O=C(O)C1CCN(C(=O)CSc2nc3ccccc3o2)CC1 [CBK286557]	91.6
O=C(Cc1ccc(-c2ccccc2)cc1)NCc1cccnc1 [CBK262591]	86.4
O=c1cc(N2CCOCC2)oc2ccccc12 [CBK008244G]	71.5
Cc1nc(C)c(C(=O)N2CCC(c3cc4cccnc4[nH]3)CC2)s1 [CBK284998]	88.5
COCCNC(=O)c1cnc2ccc(OC)cc2c1O [CBK159999]	95.9
COc1cc(F)ccc1S(=O)(=O)NC1CC(C)(C)NC(C)(C)C1 [CBK266428]	112
